The target in test [1] is HCV NS3/4A protease genotype 1b (Hepatitis C virus genotype 1b, UniProt P26663). The test is described as follows: HCV NS3/4A protease time-resolved fluorescence (TRF) assay, Ki against genotype 1b. In kind it is biochemical. The conditions noted are these: IC50 [gt-1b] (nM), NS3/4A genotype 1b, enzyme 0.2 nM. The method in brief: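 Ki was converted from fitted IC50 using IC50=Ki(1+[S]/KM) and 25 nM substrate. Protease (genotype 1b 0.2 nM, A156T 0.4 nM, 3a 0.025 nM) and compound were pre-mixed 30 min in pH 7.5 HEPES/NaCl/glycerol/DTT buffer. Cleavage then proceeded 2.5 h at room temperature, detected by time-resolved europium fluorescence (340/615 nm).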

The test system of the next test is HCV genotype 1b replicon. The test is described as follows: HCV replicon assay, genotype 1b replicon EC50. In kind it is cell-based, Hepatitis C virus. As to conditions: Hepatitis C virus, genotype 1b replicon; read-out: EC50 [gt-1b]. Put shortly:
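Stable neomycin phosphotransferase-encoding replicon cell lines, kept under G418 selection beforehand, were plated with a compound dilution series without G418 and incubated 24-48 hours. Replicon RNA was then quantified, or luciferase activity read. EC50 was calculated as percent of DMSO control by four-parameter fit.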
(In general: A replicon is a self-replicating genome or part of one, used to study replication in cells.)

For `Cc1nc2ccc(OCC(F)(F)F)cc2c2c1O[C@]1(CC2)C[C@H]2C(=O)N[C@]3(C(=O)NS(=O)(=O)C4(C)CC4)C[C@H]3/C=C\CCCCC[C@H](NC(=O)OC3(C)CCCC3)C(=O)N2C1` [Example 302, 1-methylcyclopentyl [(2R,6S,12Z,13aS,14aR,16aS)-5′-methyl-14a-{[(1-methylcyclopropyl)sulfonyl]carbamoyl}-5,16-dioxo-9′-(2,2,2-trifluoroethoxy)-1,1′,2′,5,6,7,8,9,10,11,13a,14,14a,15,16,16a-hexadecahydrospiro[cyclopropa[e]pyrrolo[1,2-a][1,4]diazacyclopentadecine-2,3′-pyrano[2,3-c]quinolin]-6-yl]carbamate], the IC50 (as a rule, the midpoint of a concentration-inhibition curve) in test [1] was determined as 0.006 nM. Further, the EC50 (usually the concentration giving half of the maximal effect) in the test with HCV genotype 1b replicon was 4.19 nM.

In test [1], `Cc1nc2ccc(OCC(F)(F)F)cc2c2c1O[C@]1(CC2)C[C@H]2C(=O)N[C@]3(C(=O)NS(=O)(=O)C4(C)CC4)C[C@H]3/C=C\CCCCC[C@H](NC(=O)OCC(C)(C)C)C(=O)N2C1` [Example 303, 2,2-dimethylpropyl [(2R,6S,12Z,13aS,14aR,16aS)-5′-methyl-14a-{[(1-methylcyclopropyl)sulfonyl]carbamoyl}-5,16-dioxo-9′-(2,2,2-trifluoroethoxy)-1,1′,2′,5,6,7,8,9,10,11,13a,14,14a,15,16,16a-hexadecahydrospiro[cyclopropa[e]pyrrolo[1,2-a][1,4]diazacyclopentadecine-2,3′-pyrano[2,3-c]quinolin]-6-yl]carbamate] showed an IC50 of 0.012 nM. For the same molecule, the EC50 in the test with HCV genotype 1b replicon came to 5.79 nM.

`Cc1nc2ccccc2c2c1O[C@]1(CC2)C[C@H]2C(=O)N[C@]3(C(=O)NS(=O)(=O)C4(C)CC4)C[C@H]3/C=C\CCCCC[C@H](NC(=O)OC(C)(C)CCS(=O)(=O)C(C)C)C(=O)N2C1` [Example 304, 2-methyl-4-(propan-2-ylsulfonyl)butan-2-yl [(2R,6S,12Z,13aS,14aR,16aS)-5′-methyl-14a-{[(1-methylcyclopropyl)sulfonyl]carbamoyl}-5,16-dioxo-1,1′,2′,5,6,7,8,9,10,11,13a,14,14a,15,16,16a-hexadecahydrospiro[cyclopropa[e]pyrrolo[1,2-a][1,4]diazacyclopentadecine-2,3′-pyrano[2,3-c]quinolin]-6-yl]carbamate] yielded an IC50 in test [1] of 0.027 nM. In the test on HCV genotype 1b replicon, the EC50 was determined as 99.6 nM.

In test [1], `Cc1nc2ccc(OC(F)(F)F)cc2c2c1O[C@]1(CC2)C[C@H]2C(=O)N[C@]3(C(=O)NS(=O)(=O)C4(C)CC4)C[C@H]3/C=C\CCCCC[C@H](NC(=O)OC(C)(C)CCS(=O)(=O)C(C)C)C(=O)N2C1` [Example 305, 2-methyl-4-(propan-2-ylsulfonyl)butan-2-yl [(2R,6S,12Z,13aS,14aR,16aS)-5′-methyl-14a-{[(1-methylcyclopropyl)sulfonyl]carbamoyl}-5,16-dioxo-9′-(trifluoromethoxy)-1,1′,2′,5,6,7,8,9,10,11,13a,14,14a,15,16,16a-hexadecahydrospiro[cyclopropa[e]pyrrolo[1,2-a][1,4]diazacyclopentadecine-2,3′-pyrano[2,3-c]quinolin]-6-yl]carbamate] displayed an IC50 of 0.029 nM. The EC50 in the test with HCV genotype 1b replicon worked out at 35.2 nM.

`CC(C)(C)OC(=O)N[C@H]1CCCCC/C=C\[C@@H]2C[C@@]2(C(=O)NS(=O)(=O)C2(C)CC2)NC(=O)[C@@H]2C[C@]3(CCc4c(c(C(F)F)nc5ccccc45)O3)CN2C1=O` [Example 306, tert-butyl [(2R,6S,12Z,13aS,14aR,16aS)-5′-(difluoromethyl)-14a-{[(1-methylcyclopropyl)sulfonyl]carbamoyl}-5,16-dioxo-1,1′,2′,5,6,7,8,9,10,11,13a,14,14a,15,16,16a-hexadecahydrospiro[cyclopropa[e]pyrrolo[1,2-a][1,4]diazacyclopentadecine-2,3′-pyrano[2,3-c]quinolin]-6-yl]carbamate] had an IC50 in test [1] of 0.015 nM. The EC50 in the test with HCV genotype 1b replicon is 1.87 nM.

The values are drawn from patent publication US8987195B2 (priority 2012, dated 2015).
